Experimental data taken from patent publication US7199259B2, “Resolution of α-(phenoxy)phenylacetic acid derivatives” (Metabolex, Inc., priority 2003, dated 2007).
Values belong to the compound of their own block, whether it stands above or below them.

Legend:
cytochrome P450 2C9 = cytochrome P450 2C9 (Homo sapiens, UniProt P11712); settings: cited from earlier work
[1] = Solubility in methylene chloride; format: physicochemical
[2] = Solubility of racemic CPTA sodium salt in water; format: physicochemical; settings: sodium hydroxide added to pH about 12.6 versus pH about 9.5
Description: A 100-mL water jacketed resin pot with a magnetic stirrer was connected to a recirculating water bath and charged with 3.48 g of the racemic CPTA sodium salt and 20.0 g of water. The bath temperature was warmed to 35° C., and the slurry was stirred for one hour. The agitator was shut off, and the solid was allowed to settle for 30 min. The pH was 9.4. A 0.3036 g-sample of the supernate was removed and diluted to 25.00 mL with acetonitrile, and the solution was assayed by HPLC analysis. Analysis was repeated at 47° C. and at 19° C. An additional 3.01 g of CPTA sodium salt was added to maintain a slurry at the higher temperature, and 25 g of water was added to give a thinner slurry at the lower temperature. The pH was increased to 12.7 at ambient temperature by the addition of 50% aqueous sodium hydroxide, and the analysis was continued at 13.5, 25, 34, and 42° C.

[3] = Solubility of diastereomeric CPTA-CAF D base salts in 2-propanol; format: physicochemical; settings: for Wt % in solution: slurry held overnight
Description: Samples of (−)-CPTA CAF D Base and (+)-CPTA CAF D Base (>98% ee) were added to 2-propanol in the amounts shown in Table 8, and mixed using an ultrasonic bath. All samples remained slurries. The slurries were held overnight at the temperature listed, then samples of the supernates were removed and analyzed by quantitative HPLC analysis to determine the CPTA concentration. Additionally, 8.00 g of (−)-CPTA CAF D Base salt required 54.2 g of 2-propanol for solution at 82° C. (14.7 wt %).

[4] = Solubility of CPTA CAF D-Base salts in 2-propanol containing 11% free CPTA; format: physicochemical; settings: 2-propanol with 11% free CPTA, FIG. 3
Description: “Solvent” was prepared by dissolving 2.40 g of racemic CPTA in 19.42 g of 2-propanol (Fisher HPLC Grade) or 4.90 g of racemic CPTA in 31.4 g of ethanol. The respective concentrations of CPTA in solution were 11.0% and 13.5%. Solubility of the (−)-CPTA·CAF D-Base Salt (i.e., (−)-Salt) or (+)-CPTA.CAF D-Base Salt (i.e., (+)-Salt) was determined by a gravimetric method. At a given temperature, a portion of the supernatant liquid from a saturated solution was remove to a vial of known weight. The solution weight was determined, and the volatile solvent was evaporated with a purge of nitrogen. The solid was further dried to constant weight in a vacuum oven at about 50° C./1 mm Hg. The vial was re-weighed to determine the loss of volatile solvent and weight of solid remaining. From this, the amount of dissolved CPTA from the “solvent” could be calculated. Subtracting the weight of total solid from the CPTA gave the weight of soluble salt in the solvent.

Chain of cytochrome P450 2C9 (P11712 whole entry): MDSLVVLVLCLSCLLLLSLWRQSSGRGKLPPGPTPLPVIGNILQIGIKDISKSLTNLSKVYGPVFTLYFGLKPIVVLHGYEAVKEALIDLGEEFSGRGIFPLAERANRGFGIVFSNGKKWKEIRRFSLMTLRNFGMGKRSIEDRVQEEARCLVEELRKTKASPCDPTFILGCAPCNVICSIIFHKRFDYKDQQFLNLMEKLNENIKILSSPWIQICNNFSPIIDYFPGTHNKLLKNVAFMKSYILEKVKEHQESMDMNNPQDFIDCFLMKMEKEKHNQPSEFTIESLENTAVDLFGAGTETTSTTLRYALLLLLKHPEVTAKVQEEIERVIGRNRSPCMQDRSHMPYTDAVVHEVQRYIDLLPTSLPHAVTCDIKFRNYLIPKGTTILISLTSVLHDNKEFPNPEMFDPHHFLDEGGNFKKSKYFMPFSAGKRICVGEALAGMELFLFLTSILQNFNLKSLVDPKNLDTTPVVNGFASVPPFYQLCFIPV

Compound: O=C(O)C(Oc1cccc(C(F)(F)F)c1)c1ccc(Cl)cc1 (single isomer, unassigned; (-)) [(−)-enantiomer of halofenic acid]
ability to inhibit cytochrome P450 2C9 compared to the (+)-enantiomer (cytochrome P450 2C9; relative to (+)-enantiomer of halofenic acid): about twenty-fold less active

Compound: O=C(O)C(Oc1cccc(C(F)(F)F)c1)c1ccc(Cl)cc1 (racemic) [halofenic acid, (4-chlorophenyl)(3-trifluoromethylphenoxy)acetic acid]
solubility in methylene chloride [1]: less than 3.4%
inhibition of cytochrome P450 2C9 (cytochrome P450 2C9; racemic acid): inhibits

Compound: NC(CO)C(O)c1ccc([N+](=O)[O-])cc1.O=C(O)C(Oc1cccc(C(F)(F)F)c1)c1ccc(Cl)cc1 (single isomer, unassigned; (+)) [(+)-CPTA CAF D Base Salt]
Wt % in solution ([3]; 8.5 °C): 1.32 Wt %
Wt % in solution ([3]; 20.0 °C): 1.85 Wt %
Wt % in solution ([3]; 45.8 °C): 6.03 Wt %
solubility in 2-propanol containing 11% free CPTA versus pure 2-propanol [4]: greater solubility

Results, then the compound that gave them:

aqueous solubility, effect of raising pH [2]: decreased the aqueous solubility
Compound: O=C([O-])C(Oc1cccc(C(F)(F)F)c1)c1ccc(Cl)cc1.[Na+] (racemic) [sodium salt of racemic CPTA]

Wt % in solution ([3]; 7.8 °C): 0.376 Wt %
Wt % in solution ([3]; 19.4 °C): 0.688 Wt %
Wt % in solution ([3]; 45.3 °C): 2.35 Wt %
solubility in 2-propanol (amount required for solution) ([3]; 82 °C, 8.00 g salt in 54.2 g 2-propanol): 14.7 wt %
solubility in 2-propanol relative to the (+)-CPTA form ([3]; FIG. 1 profiles): approximately three times less soluble
solubility in 2-propanol containing 11% free CPTA versus pure 2-propanol [4]: greater solubility
Compound: NC(CO)C(O)c1ccc([N+](=O)[O-])cc1.O=C(O)C(Oc1cccc(C(F)(F)F)c1)c1ccc(Cl)cc1 (single isomer, unassigned; (-)) [(−)-CPTA CAF D Base Salt]
